# In PubChem BioAssay AID1963860 (Molecular Pharmacology Branch, DTP, NCI, 2024):
# Test system: CN0375-F725-PDC KRAS spheroid viability
# Test: Anticancer human tumor CN0375-F725-PDC patient-derived colon carcinoma cell line growth inhibition [KRAS2]
# Conditions: spheroids with HUVEC and MSC; for IC50: curve of first compound; for viability, T/C: stronger effect = lower value
# In short: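 KRAS-mutant tumor cells were grown as spheroids with HUVEC endothelial cells and human MSCs as stroma. Targeted agents were tested alone and with KRAS pathway inhibitors. Doses started at or near clinical Cmax, or 10 microM, descending half-log.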
# [1] = second compound 0.1 µM, first compound 0.01 µM
# [2] = second compound 0.1 µM, first compound 0.0316 µM
# [3] = second compound 0.1 µM, first compound 0.1 µM
# [4] = second compound 0.1 µM, first compound 0.316 µM
# [5] = second compound 0.1 µM, first compound 1 µM
# [6] = second compound 0.1 µM, first compound 3.16 µM
# [7] = second compound 0.316 µM, first compound 0.01 µM
# [8] = second compound 0.316 µM, first compound 0.0316 µM
# [9] = second compound 0.316 µM, first compound 0.1 µM
# [10] = second compound 0.316 µM, first compound 0.316 µM
# [11] = second compound 0.316 µM, first compound 1 µM
# [12] = second compound 0.316 µM, first compound 3.16 µM
# [13] = second compound 1 µM, first compound 0.01 µM
# [14] = second compound 1 µM, first compound 0.0316 µM
# [15] = second compound 1 µM, first compound 0.1 µM
# [16] = second compound 1 µM, first compound 0.316 µM
# [17] = second compound 1 µM, first compound 1 µM
# [18] = second compound 1 µM, first compound 3.16 µM
# [19] = second compound 3.16 µM, first compound 0.01 µM
# [20] = second compound 3.16 µM, first compound 0.0316 µM
# [21] = second compound 3.16 µM, first compound 0.1 µM
# [22] = second compound 3.16 µM, first compound 0.316 µM
# [23] = second compound 3.16 µM, first compound 1 µM
# [24] = second compound 3.16 µM, first compound 3.16 µM
# [25] = second compound 10 µM, first compound 0.01 µM
# [26] = second compound 10 µM, first compound 0.0316 µM
# [27] = second compound 10 µM, first compound 0.1 µM
# [28] = second compound 10 µM, first compound 0.316 µM
# [29] = second compound 10 µM, first compound 1 µM
# [30] = second compound 10 µM, first compound 3.16 µM
# [31] = second compound 0.1 µM, first compound 10 µM
# [32] = second compound 0.316 µM, first compound 10 µM
# [33] = second compound 1 µM, first compound 10 µM
# [34] = second compound 3.16 µM, first compound 10 µM
# [35] = second compound 10 µM, first compound 10 µM
# 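Also: spheroids exposed to agents for 7 days.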
Structure (SMILES),IC50 (second compound 0.1 µM) [nM],IC50 (second compound 0.316 µM) [nM],IC50 (second compound 1 µM) [nM],IC50 (second compound 3.16 µM) [nM],IC50 (second compound 10 µM) [nM],"viability, T/C [2] [%]","viability, T/C [3] [%]","viability, T/C [4] [%]","viability, T/C [5] [%]","viability, T/C [6] [%]","viability, T/C [8] [%]","viability, T/C [9] [%]","viability, T/C [10] [%]","viability, T/C [11] [%]","viability, T/C [12] [%]","viability, T/C [14] [%]","viability, T/C [15] [%]","viability, T/C [16] [%]","viability, T/C [17] [%]","viability, T/C [18] [%]",other results
CC1COCCN1c1cc(-c2ccnn2C)c2ccnc(-c3ccn[nH]3)c2n1 (stereo not given) + CC1OCC2(CCN(c3cnc(Sc4ccnc(N)c4Cl)c(N)n3)CC2)C1N,> 3160,> 3160,> 3160,1760,614,91.7,84.1,77.1,67.5,56.2,92.8,74.3,72.9,65.1,51.3,82.7,73.3,70.7,62.1,48.6,"viability, T/C [1]: 107%; viability, T/C [7]: 90.7%; viability, T/C [13]: 88.2%; viability, T/C [19]: 81.4%; viability, T/C [20]: 76.8%; viability, T/C [21]: 68.3%; viability, T/C [22]: 59.3%; viability, T/C [23]: 54.2%; viability, T/C [24]: 46.4%; viability, T/C [25]: 69.7%; viability, T/C [26]: 74.8%; viability, T/C [27]: 62.5%; viability, T/C [28]: 53.2%; viability, T/C [29]: 49.2%; viability, T/C [30]: 39.6%"
CCNC(=O)CC1N=C(c2ccc(Cl)cc2)c2cc(OC)ccc2-n2c(C)nnc21 (stereo not given) + CC1OCC2(CCN(c3cnc(Sc4ccnc(N)c4Cl)c(N)n3)CC2)C1N,7510,4630,3690,2610,1460,92.8,88.3,79.4,72.6,60.8,88,78.9,68.5,69.7,58.8,85.2,78.2,70.5,66.5,51.6,"viability, T/C [31]: 46.1%; viability, T/C [32]: 37.3%; viability, T/C [33]: 37%; viability, T/C [20]: 79.4%; viability, T/C [21]: 73.6%; viability, T/C [22]: 62.2%; viability, T/C [23]: 61.9%; viability, T/C [24]: 48.3%; viability, T/C [34]: 36.8%; viability, T/C [26]: 72.3%; viability, T/C [27]: 73.8%; viability, T/C [28]: 60.7%; viability, T/C [29]: 53%; viability, T/C [30]: 45%; viability, T/C [35]: 36.9%"
Cn1nccc1Nc1nccc(-c2cc3c(s2)C(C)(C)N(CCN2CCOCC2)C3=O)n1 + CC1OCC2(CCN(c3cnc(Sc4ccnc(N)c4Cl)c(N)n3)CC2)C1N,2330,1070,661,341,209,98.5,83.1,69.8,58.7,47.5,88.8,78.1,60.4,51.8,42.1,81.2,81.9,60.1,45.3,37.1,"viability, T/C [31]: 36.7%; viability, T/C [32]: 36.3%; viability, T/C [33]: 35.9%; viability, T/C [20]: 74.7%; viability, T/C [21]: 65.5%; viability, T/C [22]: 52.1%; viability, T/C [23]: 36.4%; viability, T/C [24]: 33.7%; viability, T/C [34]: 31.5%; viability, T/C [26]: 62.7%; viability, T/C [27]: 63.3%; viability, T/C [28]: 42.8%; viability, T/C [29]: 31.9%; viability, T/C [30]: 28.9%; viability, T/C [35]: 28.3%"
CC(=O)OC12COC1CC(O)C1(C)C(=O)C(O)C3=C(C)C(OC(=O)C(O)C(NC(=O)OC(C)(C)C)c4ccccc4)CC(O)(C(OC(=O)c4ccccc4)C21)C3(C)C (stereo not given) + CNCc1ccccc1-c1csc(C(C)Nc2nc(C)nc3cc(OC)c(OC)cc23)c1,> 3160,> 3160,> 3160,< 10,< 10,97.7,80.7,82.5,80.4,74.2,89.4,77.5,74.7,78.5,66.8,99.7,91.8,84,77.4,78,"viability, T/C [1]: 96.2%; viability, T/C [7]: 92.8%; viability, T/C [13]: 101%; viability, T/C [19]: 1.13%; viability, T/C [20]: 100%; viability, T/C [21]: 0.66%; viability, T/C [22]: 0.86%; viability, T/C [23]: 1.34%; viability, T/C [24]: 79.3%; viability, T/C [25]: 0.72%; viability, T/C [26]: 0.57%; viability, T/C [27]: 0.77%; viability, T/C [28]: 0.24%; viability, T/C [29]: 0.62%; viability, T/C [30]: 0.25%"
